Measurements reported in BindingDB's records for doi:10.1021/acs.jmedchem.1c01655 (University of California San Diego, 2022).

Target: T1, Carboxy-terminal domain RNA polymerase II polypeptide A small phosphatase 1 (Homo sapiens, UniProt Q9GZU7)
T1 sequence (Q9GZU7 whole entry): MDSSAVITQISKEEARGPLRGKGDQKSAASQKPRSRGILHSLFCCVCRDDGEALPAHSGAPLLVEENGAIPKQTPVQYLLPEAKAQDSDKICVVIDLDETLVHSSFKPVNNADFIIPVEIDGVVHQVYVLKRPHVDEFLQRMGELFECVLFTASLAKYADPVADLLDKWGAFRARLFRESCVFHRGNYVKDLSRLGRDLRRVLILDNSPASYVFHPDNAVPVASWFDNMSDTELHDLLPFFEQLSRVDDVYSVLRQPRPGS
Assay: Inhibition of wild type human SCP1 using pNPP as substrate incubated for 0.5 to 18 hrs followed by substrate addition by absorbance based analysis

Compound: O=C(C1=CC2=C(CCC2)S1(=O)=O)N1CCN(S(=O)(=O)c2ccc(F)cc2)CC1
- IC50: 220 µM
